Experimental data as given in US8053013B2, “Flavour modulating substances” (Quest International Services B.V., priority 2004, dated 2011).

Columns and labels:
[1] = Panel evaluation of HIT Duck Flavour samples with and without N Lactoyl glucosamine (Example 8); conditions: Sample B: 0.006% N Lactoyl glucosamine with 0.6% NaCl, 0.03% MSG, 0.1% HIT Duck Flavour (Quest)
Description: Two samples were prepared as follow and compared:
Sample A: 0.6% of NaCl, 0.03% of MSG and 0.1% of HIT Duck Flavour (Quest)
Sample B: 0.6% of NaCl, 0.03% of MSG, 0.1% of HIT Duck Flavour (Quest) and 0.006% N Lactoyl glucosamine as prepared in example 4.
The samples were evaluated by a panel of experienced flavourists. There was general agreement about the difference in taste between the samples: […]

[2] = Tasting session by a panel of experienced flavourists: solution in tap water (Example 7); conditions: 0.1 wt % in tap water
Description: For a tasting session by a panel of experienced flavourists a solution comprising 0.1 wt % of a flavour composition as prepared in example 4 in tap water was prepared.

## CC(O)C(=O)N[C@H]1C(O)O[C@H](CO)[C@@H](O)[C@@H]1O (some centres unmarked) [Example 4, N-Lactoyl-Glucosamine]
[1]
  taste described by flavourists, compared with sample A without the substance: savoury duck flavour, with slightly metallic taste, and more meaty character, authenticity, and naturalness than sample A
[2]
  taste of the solution described by panellists: strong metallic, bloody, raw meat like
